From ChEMBL document CHEMBL5241104, “Reactive metabolites of the anticonvulsant drugs and approaches to minimize the adverse drug reaction” (Eur J Med Chem, 2021)

Columns and labels:
Mus musculus [1] = experiment: Anticonvulsant activity in Albino mouse assessed as protection against maximal electroshock induced seizure at ip administration for 30 mins; type: functional; settings: 0.5 h
Rattus norvegicus [2] = experiment: Anticonvulsant activity against maximal electroshock induced seizure in Wistar albino rat assessed as reduction of time spent in flexion phase at 10 mg/kg,ip administrated for 30 mins by electroconvulsive therapy; type: functional; parameters: scale not given: the % may be the effect or the level left; settings: 0.5 h
Rattus norvegicus [3] = experiment: Anticonvulsant activity against maximal electroshock induced seizure in Wistar albino rat assessed as reduction of time spent in clonus phase at 10 mg/kg,ip administrated for 30 mins by electroconvulsive therapy; type: functional; parameters: scale not given: the % may be the effect or the level left; settings: 0.5 h
Rattus norvegicus [4] = experiment: Anticonvulsant activity against maximal electroshock induced seizure in Wistar albino rat assessed as reduction of time spent in extension phase at 10 mg/kg,ip administrated for 30 mins by electroconvulsive therapy; type: functional; parameters: scale not given: the % may be the effect or the level left; settings: 0.5 h
Rattus norvegicus [5] = experiment: Anticonvulsant activity against maximal electroshock induced seizure in Wistar albino rat assessed as reduction of time spent in stupor phase at 10 mg/kg,ip administrated for 30 mins by electroconvulsive therapy; type: functional; parameters: scale not given: the % may be the effect or the level left; settings: 0.5 h
Mus musculus [6] = experiment: Anticonvulsant activity in Swiss albino mouse assessed as inhibition of maximal electroshock induced seizure at ip administration; type: functional
Mus musculus [7] = experiment: Anticonvulsant activity in mouse assessed as protection against maximal electroshock induced seizure at ip administration for 5 mins; type: functional
Rattus norvegicus [8] = experiment: Anticonvulsant activity in Wistar rat assessed as protection against maximal electroshock induced seizure at po administration for 60 mins; type: functional; settings: 1 h
Rattus norvegicus [9] = experiment: Anticonvulsant activity against maximal electroshock induced seizure in Wistar rat assessed as reduction of time spent in extension phase at 50 mg/kg,po administration; type: functional
[10] = Displacement of 3[H]BTX from rat brain membrane voltage-sensitive sodium channel incubated for 1.5 hrs by scintillation counting analysis; type: cell membranes
Mus musculus [11] = experiment: Anticonvulsant activity against 3-MP induced Swiss mouse seizure model assessed as inhibition of clonic seizures at 50 mg/kg,ip administration for 30 mins; type: functional; settings: 0.5 h
[12] = Toxicity in 3-MP induced Swiss mouse seizure model assessed as death at 50 mg/kg,ip administration for 30 mins; type: organism-based; settings: in vivo, read-out: Activity
Mus musculus [13] = experiment: Anticonvulsant activity in Swiss mouse assessed as protection against Sc-PTZ induced seizure at ip administration; type: functional
Mus musculus [14] = experiment: Anticonvulsant activity against 3-MP induced Swiss mouse seizure model assessed as inhibition of tonic seizures at 50 mg/kg,ip administration for 30 mins; type: functional; settings: 0.5 h
Mus musculus [15] = experiment: Anticonvulsant activity against bicuculline induced Swiss mouse seizure model assessed as inhibition of clonic seizures at 50 mg/kg,ip administration for 30 mins; type: functional; settings: 0.5 h
[16] = Toxicity in bicuculline induced Swiss mouse seizure model assessed as death at 50 mg/kg,ip administration for 30 mins; type: organism-based; settings: in vivo, read-out: Activity
Mus musculus [17] = experiment: Anticonvulsant activity against bicuculline induced Swiss mouse seizure model assessed as inhibition of tonic seizures at 50 mg/kg,ip administration for 30 mins; type: functional; settings: 0.5 h
Mus musculus [18] = experiment: Anticonvulsant activity in Albino mouse brain assessed as increase in GABA level at 30 to 300 mg/kg,ip by spectrophotometric method; type: functional; settings: dose 30-300 mg/kg
Mus musculus [19] = experiment: Anticonvulsant activity in mouse assessed as inhibition of maximal electroshock induced seizure at 200 mg/kg,po administration for 120 mins; type: functional; settings: 2 h
Mus musculus [20] = experiment: Anticonvulsant activity in Swiss albino mouse assessed as protection against Sc-PTZ induced seizure at po administration; type: functional
Rattus norvegicus [21] = species: Rattus norvegicus; experiment: Inhibition of sodium uptake in rat cerebral cortical synaptosomes at 100 uM incubated for 30 mins by scintillation counting analysis; type: functional; settings: Cerebral cortex, Synaptosome
Rattus norvegicus [22] = experiment: Anticonvulsant activity in Wistar rat assessed as protection against maximal electroshock induced seizure at po administration; type: functional
Rattus norvegicus [23] = species: Rattus norvegicus; experiment: Inhibition of sodium uptake in rat cerebral cortical synaptosomes at 300 uM incubated for 30 mins by scintillation counting analysis; type: functional; settings: Cerebral cortex, Synaptosome
[24] = Displacement of 3[H]BTX from rat cerebral cortical synaptosomes voltage-sensitive sodium channel incubated for 1.5 hrs by scintillation counting analysis; type: subcellular, Cerebral cortex, Synaptosome
Rattus norvegicus [25] = species: Rattus norvegicus; experiment: Inhibition of sodium uptake in rat cerebral cortical synaptosomes at 30 uM incubated for 30 mins by scintillation counting analysis; type: functional; settings: Cerebral cortex, Synaptosome
Rattus norvegicus [26] = experiment: Anticonvulsant activity in Wistar rat assessed as protection against maximal electroshock induced seizure by measuring median effective dose at po administration; type: functional
[27] = Protective index, ratio of TD50 for toxicity in Wistar rat assessed as median toxicity dose at po administration by rotorod test to ED50 for anticonvulsant activity in Wistar rat assessed as protection against maximal electroshock induced seizure at po administration; type: organism-based; settings: in vivo, read-out: Ratio TD50/ED50
[28] = Toxicity in Swiss CD-1 mouse assessed as mortality at 100 mg/kg,ip; type: organism-based; settings: in vivo
Mus musculus [29] = experiment: Anticonvulsant activity in CD-1 mouse assessed as protection against 6-Hz Psychomotor induced seizure at ip administration; type: functional
[30] = Toxicity in Swiss albino mouse assessed as lethality at 30 mg/kg,ip; type: organism-based; settings: in vivo, read-out: Activity
Mus musculus [31] = experiment: Anticonvulsant activity in Swiss albino mouse brain assessed as increase in GABA level at 30 mg/kg,ip measured after 2 hrs of post-administration by spectrophotometric method; type: functional
Mus musculus [32] = experiment: Anticonvulsant activity in Swiss albino mouse assessed as protection against Sc-PTZ induced seizure at ip administration; type: functional
Mus musculus [33] = experiment: Anticonvulsant activity in Swiss albino mouse brain assessed as increase in GABA level at 30 mg/kg,ip measured after 7 days of post-administration by spectrophotometric method; type: functional; settings: time 7 day
Mus musculus [34] = experiment: Anticonvulsant activity in Swiss albino mouse assessed as protection against maximal electroshock induced seizure at ip administration; type: functional
[35] = Toxicity in Swiss albino mouse assessed as median toxicity dose at ip administration; type: organism-based; settings: in vivo
Rattus norvegicus [36] = experiment: Anticonvulsant activity in rat assessed as protection against Sc-metrazol induced seizure at po administration; type: functional
Mus musculus [37] = experiment: Anticonvulsant activity in mouse assessed as protection against Sc-metrazol induced seizure at po administration; type: functional

Compound `O=C1Nc2ccc(Cl)cc2C(c2ccccc2)=NC1/N=N/c1ccc(Cl)cc1` (centres undefined) has an Activity (Mus musculus [1]) of 100%.
In the case of `CCN(CC)CN1C(=O)/C(=N\c2nnc(-c3cccc(Cl)c3Cl)c(/N=C3\C(=O)N(CN(CC)CC)c4ccc(Cl)cc43)n2)c2cc(Cl)ccc21`, the Activity (Rattus norvegicus [2]) is reported as 29.31%, the Activity (Rattus norvegicus [3]) is reported as 39.4% and the Activity (Rattus norvegicus [4]) is reported as 47.87%. It also gave an Activity (Rattus norvegicus [5]) of 30.21%.
With `COc1ccccc1/C=C1/N=C(c2ccccc2)c2cc([N+](=O)[O-])ccc2NC1=O` the “inhibition (INH)” value (Mus musculus [6]) was 69%.
For `O=C(NC1CCCCC1)C(c1ccc(F)cc1)N1Cc2cnnn2-c2ccccc2C1=O` (centres undefined), the Activity (Mus musculus [7]) was 87.5%.
`O=[N+]([O-])c1ccc(C2CC(c3ccc(Cl)cc3)=Nc3ccccc3N2)cc1` (centres undefined) showed an Activity (Rattus norvegicus [8]) of 56% and a Time (Rattus norvegicus [9]) of 7.25 s.
With `NC(=O)N1c2ccccc2CC([N+](=O)[O-])c2ccccc21` (centres undefined) the IC50 [10] was 2290 µM.
In the case of `NC(=O)N1c2ccccc2C=Cc2ccccc21` [CARBAMAZEPINE], the inhibition in vivo at 50 mg/kg (Mus musculus [11]) is reported as 80%, the mortality at 0.5 h [12] is reported as 90% and the ED50 (Mus musculus [13]) is reported as greater than 100 mg/kg. The inhibition in vivo at 50 mg/kg (Mus musculus [14]) was 0%, the inhibition in vivo at 50 mg/kg (Mus musculus [15]) was 100% and the mortality at 0.5 h [16] was 40%. For the same compound, the inhibition in vivo at 50 mg/kg (Mus musculus [17]) was 0%.
`CN1C(=O)CC(=O)N(c2ccccc2)c2cc(Cl)ccc21` [CLOBAZAM] showed an Activity (Mus musculus [18]) of 54.9 mg.
`CN1C(=O)CN=C(c2ccccc2)c2cc(Cl)ccc21` [DIAZEPAM] gave an Activity (Mus musculus [7]) of 87.5%.
`CNS(=O)(=O)OC[C@]12OC[C@@H]3OC(C)(C)O[C@@H]3C1OC(C)(C)O2` (some centres undefined) gave an inhibition in vivo at 200 mg/kg (Mus musculus [19]) of no less than 80%.
With `O=C(O)CCCCCn1c(-c2ccccc2)nc(-c2ccccc2)c1-c1ccccc1` the Activity (Mus musculus [20]) was 100%.
Compound `CC(=O)OC1Cc2ccccc2N(C(N)=O)c2ccccc21` (centres undefined) has an inhibition (Rattus norvegicus [21]) of 61.8%, an Activity (Rattus norvegicus [22]) of 54.4% and an inhibition (Rattus norvegicus [23]) of 82.1%. The IC50 [24] was 138 µM and the inhibition (Rattus norvegicus [25]) was 42.2%.
With `CC(=O)O[C@@H]1Cc2ccccc2N(C(N)=O)c2ccccc21` the inhibition (Rattus norvegicus [21]) was 57.7%, the ED50 (Rattus norvegicus [26]) was 4.7 mg/kg and the Activity (Rattus norvegicus [22]) was 5.9%. The inhibition (Rattus norvegicus [23]) was 73.2%, the IC50 [24] was 141 µM and the inhibition (Rattus norvegicus [25]) was 17.9%. The selectivity ratio [27] was greater than 91.7.
`O=C1CCCN1CC(O)CN1CCN(c2ccccc2O)CC1` (centres undefined) showed a mortality [28] of 14.2%.
Work on `CCC1(C)CC(=O)NC1=O` (centres undefined) [ETHOSUXIMIDE] yielded an ED50 (Mus musculus [29]) of 222 mg/kg.
Compound `CCCC(CCC)C(=O)O` [VALPROIC ACID] has an ED50 (Mus musculus [29]) of 131 mg/kg.
In the case of `O=C1Nc2ccccc2C12Nc1ccccc1-c1nc(=O)c(-c3ccccc3)nn12` (centres undefined), the mortality [30] is reported as 30%.
`O=C(NC1CCCCC1)C(c1ccc(Cl)cc1)N1Cc2cnnn2-c2ccccc2C1=O` (centres undefined) gave an Activity (Mus musculus [7]) of 100%.
Work on `COc1ccc(NC(=O)CN2C(=O)C3(Nc4ccccc4-c4nc(=O)c(C)nn43)c3ccccc32)cc1` (centres undefined) yielded a mortality [30] of 20%.
For `O=C1N=C(N2C(=S)N=C(c3ccc(F)cc3)CC2c2ccc(O)cc2)CNN1` (centres undefined), the Activity (Mus musculus [31]) was 77.42 µg, the ED50 (Mus musculus [32]) was 285 mg/kg and the Activity (Mus musculus [33]) was 78.96 µg. The ED50 (Mus musculus [34]) was 22.5 mg/kg and the TD50 [35] was 389 mg/kg.
Compound `CONC(=O)C1C(C)(C)C1(C)C` has an ED50 (Rattus norvegicus [36]) of 35 mg/kg and an ED50 (Mus musculus [37]) of 74 mg/kg.
In the case of `COc1cc(/C=C2/N=C(c3ccccc3)c3cc([N+](=O)[O-])ccc3NC2=O)ccc1O`, the “inhibition (INH)” value (Mus musculus [6]) is reported as 71%.
In the case of `CC(=O)O[C@H]1Cc2ccccc2N(C(N)=O)c2ccccc21` [ESLICARBAZEPINE ACETATE], the inhibition (Rattus norvegicus [21]) is reported as 73.4%, the ED50 (Rattus norvegicus [26]) is reported as 4.7 mg/kg and the Activity (Rattus norvegicus [22]) is reported as 100%. For the same compound, the inhibition (Rattus norvegicus [23]) was 95.6%, the IC50 [24] was 113 µM and the inhibition (Rattus norvegicus [25]) was 52.6%. The selectivity ratio [27] was 76.3.
